Patent US20250144067A1, “PERSONALIZED STARVATION THERAPY FOR CANCER” (Faeth Therapeutics, Inc., priority 2021, published 2025)
Counter-ions that a name gives are not always drawn.

Tests used:
[1] = system: NCI-H292 lung cancer cells; test: FDA drug screening, complete media vs cholesterol-free media without statin (TABLE 1); type: cell-based, human
[2] = system: NCI-H292 lung cancer cells; test: FDA drug screening, complete media vs cholesterol-free media with simvastatin (TABLE 2); type: cell-based, human; details: for Cholesterol-free media + simvastatin (0.04 μM) / Complete Media: NCI-H292 cells
[3] = NCI-H292 cells, cholesterol-free media without statin, FDA drug library screen
[4] = NCI-H292 cells, complete media, FDA drug library screen
[5] = complete vs cholesterol-free media, >0 enhanced anti-cancer activity, about 0 neutral, <0 antagonist
[6] = FDA drug library screen, cholesterol-free media with simvastatin 0.04 μM
[7] = FDA drug library screen, complete media
[8] = complete media minus cholesterol-free media + simvastatin, >0 enhanced anti-cancer activity, about 0 neutral, <0 antagonist
[9] = Complete minus Cholesterol-free, […]
[10] = NCI-H292 cells, FDA drug library screen, cholesterol-free media without statin
[11] = NCI-H292 cells, FDA drug library screen, complete media
[12] = cholesterol-free media with simvastatin 0.04 μM, […]
[13] = complete media minus cholesterol-free media + simvastatin, […]
[14] = Complete minus Cholesterol-free, >0 enhanced anti-cancer activity, about 0 neutral, <0 antagonist
[15] = NCI-H292 cells, cholesterol-free media without statin
[16] = drug in cholesterol-free media with simvastatin 0.04 μM
[17] = complete media vs cholesterol-free media + simvastatin (0.04 μM), >0 enhanced anti-cancer activity, about 0 neutral, <0 antagonist
[18] = Complete minus Cholesterol-free, greater than 0 enhanced anti-cancer activity, about 0 neutral, below 0 antagonists
[19] = NCI-H292 cells in cholesterol-free media without statin
[20] = NCI-H292 cells in complete media
[21] = cholesterol-free media with simvastatin 0.04 μM, cell growth value in FDA drug screen
[22] = complete media, cell growth value in FDA drug screen
[23] = Complete minus Cholesterol-free, greater than 0 enhanced anti-cancer activity, about 0 neutral, below 0 antagonist
[24] = complete vs cholesterol-free media, greater than 0 enhanced anti-cancer activity, about 0 neutral, below 0 antagonists
[25] = FDA library drug in cholesterol-free media with simvastatin 0.04 μM
[26] = FDA library drug in complete media
[27] = complete vs cholesterol-free media, […]
[28] = complete media vs cholesterol-free media + simvastatin (0.04 μM), […]
[29] = cholesterol-free media with simvastatin 0.04 μM, FDA drug library screen (TABLE 2)
[30] = complete media, FDA drug library screen (TABLE 2)
[31] = complete media minus cholesterol-free media + simvastatin (0.04 μM), >0 enhanced anti-cancer activity, about 0 neutral, <0 antagonist

Compound | Cholesterol-free [1, 3] | Complete [1, 4] | Cholesterol-free media + simvastatin (0.04 μM) [2, 6] | Complete Media [2, 7] | Difference [2, 8] | Difference [1, 14] | Cholesterol-free [1, 15] | Complete ([1]; NCI-H292 cells, complete media) | Difference [2, 17] | also measured
CN1CCC(=C2c3ccccc3C=Cc3ccccc32)CC1 [Cyproheptadine (hydrochloride)] | 0.9826 | 1.57 | 0.6096 | 0.7817 | 0.17 | – | – | – | – | Difference [1, 5]: 0.59
Clc1ccc(CCCOCCCN2CCCCC2)cc1 [Pitolisant (hydrochloride)] | 0.9791 | 1.232 | 0.442 | 1.031 | 0.59 | – | – | – | – | Difference [1, 5]: 0.25
C[C@@H]1[C@@H](c2ccc(Cl)cc2)SC(=O)N1C(=O)NC1CCCCC1 [Hexythiazox] | – | – | – | – | – | – | – | – | – | Difference [1, 9]: −0.16; Cholesterol-free [1, 10]: 1.557; Complete [1, 11]: 1.396; Cholesterol-free media + simvastatin (0.04 μM) [2, 12]: 0.8643; Complete Media ([2]; complete media, […]): 0.9913; Difference [2, 13]: 0.13
O=C1OC(c2ccc(O)cc2)(c2ccc(O)cc2)c2ccccc21 [Phenolphthalein] | – | – | – | – | – | −0.30 | 1.17 | 0.8721 | −0.24 | Cholesterol-free media + simvastatin (0.04 μM) [2, 16]: 1.026; Complete Media ([2]; drug in complete media): 0.7863
CCCCCCCCCCCCCCCC[n+]1ccccc1.O.[Cl-] [Cetylpyridinium (chloride monohydrate)] | −0.01651 | 0.01449 | – | – | – | – | – | – | – | Difference [1, 9]: 0.03; Cholesterol-free media + simvastatin (0.04 μM) [2, 12]: 0.1519; Complete Media ([2]; complete media, […]): 0.2714; Difference [2, 13]: 0.12
Cc1ccc(S(=O)(=O)NC(=O)NN2CCCCCC2)cc1 [Tolazamide] | – | – | – | – | 0.13 | – | – | – | – | Difference [1, 18]: −0.50; Cholesterol-free [1, 19]: 1.412; Complete [1, 20]: 0.9106; Cholesterol-free media + simvastatin (0.04 μM) [2, 21]: 1.047; Complete Media [2, 22]: 1.177
O=c1oc2ccccc2c(O)c1Cc1c(O)c2ccccc2oc1=O [Dicoumarol] | – | – | 0.8973 | 1.089 | 0.19 | – | – | – | – | Difference [1, 18]: −0.93; Cholesterol-free [1, 19]: 2.049; Complete [1, 20]: 1.114
C[C@@H](O)[C@H]1C(=O)N2C(C(=O)O)=C([C@H]3CCCO3)S[C@H]12 [Faropenem sodium] | 0.8692 | 0.8522 | – | – | 0.04 | −0.02 | – | – | – | Cholesterol-free media + simvastatin (0.04 μM) [2, 21]: 0.9421; Complete Media [2, 22]: 0.984
O=c1[nH]c(=O)n(C2CCCO2)cc1F (centres unmarked) [Tegafur] | – | – | 1.002 | 1.263 | 0.26 | −0.25 | 0.9682 | 0.7137 | – | –
Cc1nc(Nc2ncc(C(=O)Nc3c(C)cccc3Cl)s2)cc(N2CCN(CCO)CC2)n1 [Dasatinib] | – | – | 0.3286 | 0.514 | 0.19 | – | – | – | – | Difference [1, 23]: −0.15; Cholesterol-free [1, 10]: 0.4806; Complete [1, 11]: 0.3333
Cc1c(OCC(F)(F)F)ccnc1C[S+]([O-])c1nc2ccccc2[nH]1 (centres unmarked) [Lansoprazole] | – | – | – | – | – | – | 1.34 | 0.9564 | −0.46 | Difference [1, 24]: −0.38; Cholesterol-free media + simvastatin (0.04 μM) [2, 25]: 1.103; Complete Media [2, 26]: 0.6471
CCC(=O)O[C@@H]1CC(=O)O[C@H](C)C/C=C/C=C/[C@H](O)[C@H](C)C[C@H](CC=O)[C@H](O[C@@H]2O[C@H](C)[C@@H](O[C@H]3C[C@@](C)(O)[C@@H](OC(=O)CC)[C@H](C)O3)[C@H](N(C)C)[C@H]2O)[C@H]1OC [Midecamycin] | 1.021 | 1.536 | – | – | – | – | – | – | −0.34 | Difference [1, 5]: 0.52; Cholesterol-free media + simvastatin (0.04 μM) [2, 25]: 1.255; Complete Media [2, 26]: 0.9149
CC(C(=O)O)c1cccc(Oc2ccccc2)c1 (centres unmarked) [Fenoprofen (Calcium hydrate)] | – | – | – | – | – | −0.23 | 1.081 | 0.8539 | −0.19 | Cholesterol-free media + simvastatin (0.04 μM) [2, 16]: 1.224; Complete Media ([2]; drug in complete media): 1.032
NC(=O)c1cn(Cc2c(F)cccc2F)nn1 [Rufinamide] | 0.9822 | 0.9785 | 0.995 | 0.8999 | – | 0.00 | – | – | −0.10 | –
Cc1[nH]c(=O)c(C#N)cc1-c1ccncc1 [Milrinone] | 0.9793 | 0.9407 | 1.16 | 1.825 | 0.66 | −0.04 | – | – | – | –
Icatibant (acetate) | – | – | – | – | – | – | 1.121 | 0.7693 | – | Difference [1, 27]: −0.35; Cholesterol-free media + simvastatin (0.04 μM) [2, 16]: 1.025; Complete Media ([2]; drug in complete media): 0.7948; Difference [2, 28]: −0.23
Saquinavir (Mesylate) | 0.7536 | 1.206 | 2.052 | 1.925 | – | – | – | – | −0.13 | Difference [1, 5]: 0.45
CCN(CC)CCOC(=O)C(O)(c1ccccc1)c1ccccc1 [Benactyzine hydrochloride] | – | – | – | – | – | – | – | – | – | Difference [1, 9]: −0.51; Cholesterol-free [1, 19]: 1.39; Complete [1, 20]: 0.878; Cholesterol-free media + simvastatin (0.04 μM) [2, 16]: 1.159; Complete Media ([2]; drug in complete media): 0.961; Difference [2, 28]: −0.20
Lasofoxifene (Tartrate) | – | – | 0.6494 | 0.9428 | – | – | 1.19 | 0.7569 | – | Difference [1, 27]: −0.43; Difference [2, 13]: 0.29
C#CCN[C@H]1CCc2ccccc21 [(S)-Rasagiline] | 1.001 | 1.048 | – | – | – | 0.05 | – | – | −0.38 | Cholesterol-free media + simvastatin (0.04 μM) [2, 25]: 1.283; Complete Media [2, 26]: 0.8996
CC(=O)NC(CCC(N)=O)C(=O)O (centres unmarked) [Aceglutamide] | – | – | 0.762 | 1.026 | 0.26 | – | 1.178 | 0.7674 | – | Difference [1, 24]: −0.41
O=C1OCCN1/N=C/c1ccc([N+](=O)[O-])o1 [Furazolidone] | 0.797 | – | – | – | – | – | – | – | – | Difference [1, 5]: 0.35; Cholesterol-free media + simvastatin (0.04 μM) [2, 29]: 0.938; Complete Media [2, 30]: 0.9029; Difference [2, 31]: −0.04
CCOCCn1c(C2CCN(CCc3ccc(C(C)(C)C(=O)O)cc3)CC2)nc2ccccc21 [Bilastine] | – | – | 1.167 | 1.071 | – | −0.27 | 1.435 | – | −0.10 | –
Delavirdine (mesylate) | – | – | – | – | 0.08 | – | – | – | – | Difference [1, 23]: −0.10; Cholesterol-free [1, 10]: 1.071; Complete [1, 11]: 0.9729; Cholesterol-free media + simvastatin (0.04 μM) [2, 21]: 0.9532
CN(C)CCOCC(=O)NC12CC3CC(CC(C3)C1)C2 [Tromantadine (hydrochloride)] | – | – | – | – | – | −0.20 | 0.9414 | 0.7414 | −0.25 | Cholesterol-free media + simvastatin (0.04 μM) [2, 16]: 1.251; Complete Media ([2]; drug in complete media): 1.005
CC[C@H](C)[C@H](N)C(=O)O [L-Isoleucine] | 1.023 | 1.082 | 2.302 | – | – | 0.06 | – | – | – | Difference [2, 31]: −1.28
Ribociclib succinate hydrate | – | – | – | – | 0.14 | −0.21 | 0.9345 | 0.7226 | – | Cholesterol-free media + simvastatin (0.04 μM) [2, 21]: 0.4954; Complete Media [2, 22]: 0.6321
CCC(=O)NC[C@@H]1C[C@H]1c1cccc2c1CCO2 [Tasimelteon] | – | – | – | – | – | – | – | – | – | Difference [1, 23]: −0.12; Cholesterol-free [1, 10]: 0.9406; Complete [1, 11]: 0.8228; Cholesterol-free media + simvastatin (0.04 μM) [2, 29]: 0.9943; Complete Media [2, 30]: 0.9618; Difference [2, 31]: −0.03
COc1cc(C(=O)NCc2ccc(OCCN(C)C)cc2)cc(OC)c1OC [Trimethobenzamide hydrochloride] | 0.8254 | 0.9013 | – | – | – | – | – | – | −0.37 | Difference [1, 5]: 0.08; Cholesterol-free media + simvastatin (0.04 μM) [2, 25]: 1.241; Complete Media [2, 26]: 0.874
CN1C(=O)CCS(=O)(=O)C1c1ccc(Cl)cc1 (centres unmarked) [Chlormezanone] | 0.6871 | 0.9881 | – | – | – | – | – | – | – | Difference [1, 27]: 0.30; Cholesterol-free media + simvastatin (0.04 μM) [2, 25]: 1.449; Complete Media [2, 26]: 1.114; Difference [2, 28]: −0.34
